Each structure is given as a SMILES string.

For the first assay, the target named is T1, TRPC4 (Homo sapiens, UniProt Q9UBN4).
T1 construct: expressed in transfected cells; host or cells: HEK-TREx (HekTrex-293), cell line ICLN-1694, tetracycline-induced
T1 sequence (Q9UBN4 1-982 isoform Q9UBN4-5): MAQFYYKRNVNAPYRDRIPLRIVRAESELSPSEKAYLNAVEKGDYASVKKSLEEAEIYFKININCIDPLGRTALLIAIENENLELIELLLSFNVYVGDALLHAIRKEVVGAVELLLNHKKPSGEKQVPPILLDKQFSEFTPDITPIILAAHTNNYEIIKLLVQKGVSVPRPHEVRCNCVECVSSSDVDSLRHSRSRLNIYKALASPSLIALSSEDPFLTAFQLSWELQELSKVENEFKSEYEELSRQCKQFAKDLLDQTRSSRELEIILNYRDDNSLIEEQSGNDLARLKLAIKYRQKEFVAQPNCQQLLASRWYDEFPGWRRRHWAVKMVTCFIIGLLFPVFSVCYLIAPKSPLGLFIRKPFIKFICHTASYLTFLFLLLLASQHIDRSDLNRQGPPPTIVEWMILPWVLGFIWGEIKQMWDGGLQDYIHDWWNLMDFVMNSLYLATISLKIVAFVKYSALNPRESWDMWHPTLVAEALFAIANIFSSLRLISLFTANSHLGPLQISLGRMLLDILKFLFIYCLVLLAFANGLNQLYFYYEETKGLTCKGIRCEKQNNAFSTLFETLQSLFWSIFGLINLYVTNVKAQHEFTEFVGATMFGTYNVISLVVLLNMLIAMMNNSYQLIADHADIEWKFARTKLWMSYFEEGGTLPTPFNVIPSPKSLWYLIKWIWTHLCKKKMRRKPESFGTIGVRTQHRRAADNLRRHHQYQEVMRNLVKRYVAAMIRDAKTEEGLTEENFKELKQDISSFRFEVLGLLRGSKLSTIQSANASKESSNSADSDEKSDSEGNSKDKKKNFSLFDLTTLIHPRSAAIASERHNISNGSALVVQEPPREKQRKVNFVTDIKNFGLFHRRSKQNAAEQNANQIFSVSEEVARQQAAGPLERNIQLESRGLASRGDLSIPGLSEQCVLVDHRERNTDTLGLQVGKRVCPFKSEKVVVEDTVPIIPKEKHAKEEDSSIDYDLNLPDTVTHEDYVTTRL
As to the kind of experiment: TRPC4 FLIPR Assay (HEK-TREx hTRPC4, Englerin A stimulation). Type of assay: cell-based. Particulars: Table 9; HEK-TREx hTRPC4; read-out: hTRPC4-FLIPR IC50. As to the method: FLIPR Assay Buffer (Earls Balanced Salt Solution (EBSS)) was prepared as follows:
10-point dose response curves were generated using the Echo-550 acoustic dispenser. Compound source plates were made by serially diluting compound stocks to create 10 mM, 1 mM, and 0.1 mM solutions in DMSO into Echo certified LDV plates. The Echo then serially spotted 100% DMSO stock solutions into source dose response plates to generate a 4-fold dilution scheme. 100% DMSO was added to the spotted dose response plates to bring the final volume to 5 μl. […] of the dose response stock plate was then spotted into pre-incubation and stimulation assay plates. […] of pre-incubation buffer and 100 μl of stimulation buffer was then added to the plates resulting in a final assay test concentration range of 30 μM to 0.0001 μM with a final DMSO concentration of 0.3%.
Experimental Methods: Cells expressing TRPC4 were plated onto 384 well, black pdl-coated microplates and maintained in TRPC4 growth media the day prior to use for experiments. TRPC4 expression was induced by the application of 1 μg/ml tetracycline at the time of plating. […] Cells were incubated at room temperature, protected from light, for 60-90 minutes. After the incubation period, the dye was removed and replaced with 10 μl of EBSS. Cell, pre-incubation and stimulation plates were loaded onto the FLIPR-II and the assay was initiated. The FLIPR measured a 10 second baseline and then added 10 μl of 2× compounds (or controls). Changes in fluorescence were monitored for an additional 5 minutes. After a 5 minute pre-incubation, 20 μl of 2× Englerin A (with 1× compound or controls) was added to the cell plate. The final Engerlin A stimulation concentration in the assay is 100 nM. After the Englerin A addition, changes in fluorescence were monitored for an additional 5 minutes.
Test Agent Effect: Test agent modulation of TRPC4 calcium response was determined as follows. After the Englerin A, fluorescence was monitored for a 5 minute period. The maximum relative fluorescence response (minus the control response of […] of the control inhibitor) was captured and exported from the FLIPR. Test agent effect was calculated as % inhibition using the following formula: % inhibition=((RFU TEST AGENT−Plate Average RFU REF INHIB)/(Plate Average RFU CONTROL−Plate Average RFU REF INHIB))×100
For `C[C@@H](c1ccc(F)cc1C(F)(F)F)N1CCN(c2cn[nH]c(=O)c2Cl)CC1=O` [drawing 1049], the IC50 lay within 0.01 to 1000 nM. On the same count and under the same terms, the figure for `C[C@@H](c1ccccc1C(F)(F)F)N1CCN(c2cn[nH]c(=O)c2Cl)CC1=O` [drawing 1044] is 0.01 to 1000 nM; for `C[C@H](c1ccc(F)cc1C(F)(F)F)N1C[C@@H](C)N(c2cn[nH]c(=O)c2Cl)CC1=O` [drawing 1048] it is 0.01 to 1000 nM.

The same assay, now with this note: Table 10; HEK-TREx hTRPC4; read-out: TRPC4-FLIPR ICSO.
In the case of `O=c1[nH]ncc(N2CCc3c(Cc4ccc(F)cc4C(F)(F)F)n[nH]c3C2)c1Cl` [drawing 1153], the IC50 lay in the range of 0.01 to 1000 nM. The same measure, in the same setting: the figure for `C[C@H](c1ccccc1C(F)(F)F)n1nnc2c1CCN(c1cn[nH]c(=O)c1Cl)[C@H]2C` [drawing 1078] is 0.01 to 1000 nM; for `C[C@@H]1Cc2c(nnn2[C@@H](C)c2ccc(F)cc2C(F)(F)F)CN1c1cn[nH]c(=O)c1Cl` [drawing 1085] it is 0.01 to 1000 nM. Still for that read-out and setting: then `CCc1ncccc1N(C)c1ncc2c(n1)CN(c1cn[nH]c(=O)c1Cl)C2` [drawing 1154], with 0.01 to 1000 nM. With `CCS(=O)(=O)c1nc2c(n1Cc1ccccc1C(F)(F)F)CCN(c1cn[nH]c(=O)c1Cl)C2` [drawing 1079], the IC50 lay within 0.01 to 1000 nM. The same measure, in the same setting: then `C[C@H](c1ccccc1C(F)F)n1nnc2c1CCN(c1cn[nH]c(=O)c1Cl)C2` [drawing 1100], with 0.01 to 1000 nM; and `C[C@H](c1ccccc1C(F)(F)F)n1nc(C(N)=O)c2c1CCN(c1cn[nH]c(=O)c1Cl)C2` [drawing 1123], with 0.01 to 1000 nM. Turning to `CNC(=O)c1nn([C@H](C)c2ccccc2C(F)F)c2c1CN(c1cn[nH]c(=O)c1Cl)CC2` [drawing 1113], the IC50 was 0.01 to 1000 nM. For the compound `CC(c1ccc(F)cc1C(F)F)n1nc(C(N)=O)c2c1CCN(c1cn[nH]c(=O)c1Cl)C2` (centres unmarked) [drawing 1114], the IC50 was 0.01 to 1000 nM. The same measure, in the same setting: then `C[C@@H]1Cc2c(nnn2[C@@H](C)c2ccccc2C(F)(F)F)CN1c1cn[nH]c(=O)c1Cl` [drawing 1071], with 0.01 to 1000 nM; and `CCN(c1ncc2c(n1)CN(c1cn[nH]c(=O)c1Cl)C2)c1ccccc1Cl` [drawing 1148], with 0.01 to 1000 nM. With `CN(c1ncc2c(n1)CN(c1cn[nH]c(=O)c1Cl)C2)c1ccc(F)cc1Cl` [drawing 1144], the IC50 lay within 0.01 to 1000 nM. As for `C[C@H](c1ccccc1Cl)n1nnc2c1CCN(c1cn[nH]c(=O)c1Cl)C2` [drawing 1133], the IC50 was in the range of 0.01 to 1000 nM.

In the case of `O=c1[nH]ncc(N2CCc3c(c(=O)[nH]n3Cc3ccccc3C(F)(F)F)C2)c1Cl` [drawing 1081], the IC50 was in the range of 0.01 to 1000 nM. On to `C[C@@H]1Cc2c(c(C(N)=O)nn2Cc2ccccc2C(F)(F)F)CN1c1cn[nH]c(=O)c1Cl` [drawing 1118], for which the IC50 was in the range of 0.01 to 1000 nM. On the same count and under the same terms, then `O=c1[nH]ncc(N2CCc3c(ncn3Cc3ccc(F)cc3Cl)C2)c1Cl` [drawing 1136], with 0.01 to 1000 nM; and `COCc1ccccc1Cn1cnc2c1CCN(c1cn[nH]c(=O)c1Cl)C2` [drawing 1053], with 0.01 to 1000 nM.

With `CS(=O)(=O)c1nc2c(n1Cc1ccccc1C(F)(F)F)CCN(c1cn[nH]c(=O)c1Cl)C2` [drawing 1142], the IC50 lay within 0.01 to 1000 nM. Still for that read-out and setting: the figure for `CNC(=O)c1nn(Cc2ccc(F)cc2C(F)F)c2c1CN(c1cn[nH]c(=O)c1Cl)CC2` [drawing 1117] is 0.01 to 1000 nM; for `O=c1[nH]ncc(N2CCc3c(nnn3Cc3ccc(F)cc3CC(F)(F)F)C2)c1Cl` [drawing 1131] it is 0.01 to 1000 nM; for `NC(=O)c1nc2c(n1Cc1ccccc1C(F)(F)F)CCN(c1cn[nH]c(=O)c1Cl)C2` [drawing 1135] it is 0.01 to 1000 nM. For `C[C@@H](c1ccc(F)cc1C(F)F)n1nnc2c1CCN(c1cn[nH]c(=O)c1Cl)C2` [drawing 1107], the IC50 is 0.01 to 1000 nM. In the case of `C[C@H](c1ccc(F)cc1C(F)(F)F)n1nnc2c1CCN(c1cn[nH]c(=O)c1Cl)[C@H]2C` [drawing 1092], the IC50 was in the range of 0.01 to 1000 nM. For `C[C@H](c1ccc(F)cc1C(F)F)n1nc(C(N)=O)c2c1CCN(c1cn[nH]c(=O)c1Cl)C2`, the IC50 lay within 0.01 to 1000 nM. Still for that read-out and setting: then `COC[C@H](c1ccccc1C(F)(F)F)n1cnc2c1CCN(c1cn[nH]c(=O)c1Cl)C2` [drawing 1120], with 0.01 to 1000 nM; and `C[C@@H](c1cccnc1CC(F)F)n1nnc2c1CCN(c1cn[nH]c(=O)c1Cl)C2` [drawing 1125], with 0.01 to 1000 nM; and `COCc1ncccc1Cn1cnc2c1CCN(c1cn[nH]c(=O)c1Cl)C2` [drawing 1065], with 1000 to 5000 nM. As for `O=c1[nH]ncc(N2CCc3c(ncn3Cc3ccccc3Cl)C2)c1Cl` [drawing 1139], the IC50 lay within 0.01 to 1000 nM. Still for that read-out and setting: then `C[C@@H](c1ccccc1C(F)F)n1nnc2c1CCN(c1cn[nH]c(=O)c1Cl)C2` [drawing 1106], with 0.01 to 1000 nM; and `CNC(=O)c1nc2c(n1Cc1ccccc1C(F)(F)F)CCN(c1cn[nH]c(=O)c1Cl)C2` [drawing 1134], with 0.01 to 1000 nM. Turning to `C[C@@H](c1ccccc1Cl)n1nnc2c1CCN(c1cn[nH]c(=O)c1Cl)C2` [drawing 1140], the IC50 lay within 0.01 to 1000 nM. On the same count and under the same terms, the figure for `[2H]c1nc2c(n1Cc1ccccc1C(F)(F)F)CCN(c1cn[nH]c(=O)c1Cl)C2` is 0.01 to 1000 nM.

These data come from patent publication US20260184708A1, “PYRIDAZINONES AND METHODS OF USE THEREOF” (GFB (ABC), LLC, priority 2017, published 2026).
